Laboratory results as given in ChEMBL document CHEMBL5214899, “Tailor-made amino acids in the design of small-molecule blockbuster drugs” (Eur J Med Chem, 2021).

Columns and labels:
[1] = system: Human immunodeficiency virus 1; experiment: Antiviral activity against HIV-1 IIIb infected in human MT2 cells assessed as reduction in virus induced cytopathic effect and measured after 5 days by XTT assay; format: functional, organism-based; conditions: Human immunodeficiency virus 1, IIIb, MT2, 120 h
[2] = Inhibition of TNF-alpha release in LPS stimulated human PBMC; format: functional, cell-based
SARS-CoV = experiment: Antiviral activity against SARS 2019-nCoV infected in African green monkey Vero E6 cells assessed as inhibition of viral infection preincubated and measured after 48 hrs by qRT-PCR analysis; format: functional; conditions: Severe acute respiratory syndrome-related coronavirus, Vero C1008

Row | SMILES | EC50 [1] | other results
1 | C[C@H](Cn1cnc2c(N)ncnc21)OCP(=O)(O)N[C@H](C)C(=O)O | 10 µM | –
2 | Nc1cccc2c1CN(C1CCC(=O)NC1=O)C2=O (centres undefined) [LENALIDOMIDE] | – | IC50 [2]: 100 nM
3 | CCC(CC)COC(=O)[C@H](C)N[P@](=O)(OC[C@H]1O[C@@](C#N)(c2ccc3c(N)ncnn23)[C@H](O)[C@@H]1O)Oc1ccccc1 [REMDESIVIR] | – | EC90 (SARS-CoV): 1760 nM
4 | C[C@H](Cn1cnc2c(N)ncnc21)OCP(=O)(O)O [TENOFOVIR ANHYDROUS] | 5 µM | –
